{"source": "paper PMC5615911", "about": "(Toxicology Reports, 2016)", "key": {"TA100": {"test_system": "TA100", "details": "pre-incubation, presence of metabolic activation; cited from earlier work"}, "[1]": {"details": "diet, 92 or 93 days; cited from earlier work"}, "[2]": {"test_system": "S. typhimurium strains TA98, TA100, TA1535, TA1537", "details": "up to 5000 μg/plate; cited from earlier work"}, "TA1535": {"test_system": "TA1535", "details": "plate incorporation, absence of metabolic activation; cited from earlier work"}, "[3]": {"test_system": "femoral bone marrow polychromatic erythrocytes", "details": "ip, cited from earlier work"}, "CHO-WBL cells": {"test_system": "CHO-WBL cells", "details": "±metabolic activation, up to 5000 μg/mL; cited from earlier work"}, "[4]": {"details": "male, cited from earlier work"}, "CYP3A4 [5]": {"biological_target": "T1, CYP3A4 (Homo sapiens, UniProt P08684)", "T1 sequence (P08684 whole entry)": "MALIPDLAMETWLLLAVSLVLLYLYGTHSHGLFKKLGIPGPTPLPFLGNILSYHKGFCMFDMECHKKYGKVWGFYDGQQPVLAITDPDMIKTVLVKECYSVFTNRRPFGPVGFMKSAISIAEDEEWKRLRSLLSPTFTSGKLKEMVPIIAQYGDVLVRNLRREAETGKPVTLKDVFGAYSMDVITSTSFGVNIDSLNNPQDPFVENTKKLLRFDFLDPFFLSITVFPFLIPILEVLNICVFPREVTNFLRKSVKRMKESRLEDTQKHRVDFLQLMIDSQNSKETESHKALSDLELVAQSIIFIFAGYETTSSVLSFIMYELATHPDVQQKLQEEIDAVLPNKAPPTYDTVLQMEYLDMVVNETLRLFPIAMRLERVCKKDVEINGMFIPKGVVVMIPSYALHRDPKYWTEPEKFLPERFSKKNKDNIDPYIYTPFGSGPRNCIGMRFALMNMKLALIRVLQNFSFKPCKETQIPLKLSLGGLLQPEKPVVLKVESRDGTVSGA", "details": "ref Senomyx, unpublished results; cited from earlier work"}, "CYP3A4 [6]": {"biological_target": "T1, CYP3A4", "details": "ref Senomyx, unpublished results; cited from earlier work", "remark": "listed apart in the source"}, "[7]": {"test_system": "GPCRs, ion channels, nuclear receptors, transporters", "details": "10 μM; ref Senomyx, unpublished results; cited from earlier work"}, "[8]": {"details": "ref Chi, unpublished results, cited from earlier work"}, "[9]": {"details": "28 days oral gavage, highest dose evaluated; ref Senomyx, unpublished results; cited from earlier work"}, "[10]": {"experiment": "In vitro metabolism, human liver microsomes", "type": "in vitro ADME", "details": "60 min, with NADPH, positive control"}, "[11]": {"experiment": "In vitro metabolism, rat liver microsomes", "type": "in vitro ADME, Sprague-Dawley rat", "details": "60 min, with NADPH, positive control"}, "[12]": {"details": "female, oral gavage 10 mg/kg bw"}, "[13]": {"details": "female, oral gavage 30 mg/kg bw"}, "[14]": {"details": "female, oral gavage 100 mg/kg bw"}}, "note": "Like-named read-outs stand apart in the source and are kept apart here."}
{"smiles": "COc1ccc(CNC(=O)C(=O)NCCc2ccccn2)c(OC)c1", "note": "[S336, N^1-(2,4-dimethoxybenzyl)-N^2-(2-(pyridin-2-yl)ethyl)oxalamide]", "values": [{"measurement": "Reverse mutation result", "setting": "TA100", "result": "weakly positive"}, {"measurement": "NOEL", "setting": "[1]", "result": "at least 100 mg/kg bw/day"}, {"measurement": "Mutagenicity, conclusion", "setting": "[2]", "result": "non-mutagenic"}, {"measurement": "Reverse mutation result", "setting": "TA1535", "result": "weakly positive"}, {"measurement": "Micronucleated polychromatic erythrocytes vs negative control", "setting": "[3]; up to 800 mg/kg bw, 24, 36, 48 h", "result": "no statistically significant differences"}, {"measurement": "Maximum tolerated dose", "setting": "[3]", "result": 800, "unit": "mg/kg bw"}, {"measurement": "Clastogenicity", "setting": "CHO-WBL cells", "result": "non-clastogenic"}, {"measurement": "AUC0-last", "setting": "[4]; iv 0.1 mg/kg bw", "result": "65.0 ± 1.3", "unit": "ng·h/mL"}, {"measurement": "Cmax", "setting": "[4]; iv 0.1 mg/kg bw", "result": "207 ± 25.8", "unit": "ng/mL"}, {"measurement": "Tmax", "setting": "[4]; iv 0.1 mg/kg bw", "result": 1.8, "unit": "min"}, {"measurement": "t1/2", "setting": "[4]; iv 0.1 mg/kg bw", "result": 25.2, "unit": "min"}, {"measurement": "% F", "setting": "[4]; oral gavage 10 mg/kg bw", "result": 89.4, "unit": "%"}, {"measurement": "AUC0-last", "setting": "[4]; oral gavage 10 mg/kg bw", "result": "5809 ± 444", "unit": "ng·h/mL"}, {"measurement": "Cmax", "setting": "[4]; oral gavage 10 mg/kg bw", "result": "7027 ± 925", "unit": "ng/mL"}, {"measurement": "Tmax", "setting": "[4]; oral gavage 10 mg/kg bw", "result": 15, "unit": "min"}, {"measurement": "t1/2", "setting": "[4]; oral gavage 10 mg/kg bw", "result": 41.4, "unit": "min"}, {"measurement": "% F", "setting": "[4]; oral gavage 30 mg/kg bw", "result": 114.2, "unit": "%"}, {"measurement": "AUC0-last", "setting": "[4]; oral gavage 30 mg/kg bw", "result": "22260 ± 727", "unit": "ng·h/mL"}, {"measurement": "Cmax", "setting": "[4]; oral gavage 30 mg/kg bw", "result": "23430 ± 1436", "unit": "ng/mL"}, {"measurement": "Tmax", "setting": "[4]; oral gavage 30 mg/kg bw", "result": 11.4, "unit": "min"}, {"measurement": "t1/2", "setting": "[4]; oral gavage 30 mg/kg bw", "result": 42.6, "unit": "min"}, {"measurement": "% F", "setting": "[4]; oral gavage 100 mg/kg bw", "result": 134.6, "unit": "%"}, {"measurement": "AUC0-last", "setting": "[4]; oral gavage 100 mg/kg bw", "result": "87490 ± 13350", "unit": "ng·h/mL"}, {"measurement": "Cmax", "setting": "[4]; oral gavage 100 mg/kg bw", "result": "36270 ± 6004", "unit": "ng/mL"}, {"measurement": "Tmax", "setting": "[4]; oral gavage 100 mg/kg bw", "result": 15, "unit": "min"}, {"measurement": "t1/2", "setting": "[4]; oral gavage 100 mg/kg bw", "result": 58.8, "unit": "min"}, {"measurement": "Fold increase in AUClast for 10-fold increase in oral dose", "setting": "[4]", "result": 15.1, "unit": "fold"}]}
{"smiles": "COc1cccc(CNC(=O)C(=O)NCCc2ccccn2)c1OC", "note": "[S5456, N^1-(2,3-dimethoxybenzyl)-N^2-(2-(pyridin-2-yl)ethyl)oxalamide]", "values": [{"measurement": "% inhibition at 10 μM", "setting": "CYP3A4 [5]", "result": 51, "unit": "%"}, {"measurement": "% inhibition at 10 μM, any CYP isozyme of the panel", "setting": "CYP3A4 [6]", "result": "< 50", "unit": "%"}, {"measurement": "Significant off-target activities", "setting": "[7]", "result": "No other significant off-target activities"}, {"measurement": "AUC0-last", "setting": "[8]; female, iv 1.0 mg/kg bw", "result": "817 ± 186", "unit": "ng·h/mL"}, {"measurement": "Cmax", "setting": "[8]; female, iv 1.0 mg/kg bw", "result": "2398 ± 391", "unit": "ng/mL"}, {"measurement": "Tmax", "setting": "[8]; female, iv 1.0 mg/kg bw", "result": 1.8, "unit": "min"}, {"measurement": "t1/2", "setting": "[8]; female, iv 1.0 mg/kg bw", "result": 19.2, "unit": "min"}, {"measurement": "% F", "setting": "[8]; [12]", "result": 51.4, "unit": "%"}, {"measurement": "AUC0-last", "setting": "[8]; [12]", "result": "4201 ± 1013", "unit": "ng·h/mL"}, {"measurement": "Cmax", "setting": "[8]; [12]", "result": "3258 ± 1087", "unit": "ng/mL"}, {"measurement": "Tmax", "setting": "[8]; [12]", "result": 15, "unit": "min"}, {"measurement": "t1/2", "setting": "[8]; [12]", "result": 72, "unit": "min"}, {"measurement": "% F", "setting": "[8]; [13]", "result": 108.6, "unit": "%"}, {"measurement": "AUC0-last", "setting": "[8]; [13]", "result": "26610 ± 7306", "unit": "ng·h/mL"}, {"measurement": "Cmax", "setting": "[8]; [13]", "result": "10980 ± 1500", "unit": "ng/mL"}, {"measurement": "Tmax", "setting": "[8]; [13]", "result": 19.8, "unit": "min"}, {"measurement": "t1/2", "setting": "[8]; [13]", "result": 95.4, "unit": "min"}, {"measurement": "% F", "setting": "[8]; [14]", "result": 250.2, "unit": "%"}, {"measurement": "AUC0-last", "setting": "[8]; [14]", "result": "204400 ± 44540", "unit": "ng·h/mL"}, {"measurement": "Cmax", "setting": "[8]; [14]", "result": "34670 ± 4196", "unit": "ng/mL"}, {"measurement": "Tmax", "setting": "[8]; [14]", "result": 55.2, "unit": "min"}, {"measurement": "t1/2", "setting": "[8]; [14]", "result": 175, "unit": "min"}, {"measurement": "Fold increase in AUClast for 10-fold increase in oral dose", "setting": "[8]; female", "result": 48.7, "unit": "fold"}, {"measurement": "AUC0-last", "setting": "[8]; male, iv 1.0 mg/kg bw", "result": "757 ± 112", "unit": "ng·h/mL"}, {"measurement": "Cmax", "setting": "[8]; male, iv 1.0 mg/kg bw", "result": "2633 ± 363", "unit": "ng/mL"}, {"measurement": "Tmax", "setting": "[8]; male, iv 1.0 mg/kg bw", "result": 1.8, "unit": "min"}, {"measurement": "t1/2", "setting": "[8]; male, iv 1.0 mg/kg bw", "result": 19.2, "unit": "min"}, {"measurement": "% F", "setting": "[8]; male, oral gavage 10 mg/kg bw", "result": 39.6, "unit": "%"}, {"measurement": "AUC0-last", "setting": "[8]; male, oral gavage 10 mg/kg bw", "result": "3001 ± 498", "unit": "ng·h/mL"}, {"measurement": "Cmax", "setting": "[8]; male, oral gavage 10 mg/kg bw", "result": "3120 ± 787", "unit": "ng/mL"}, {"measurement": "Tmax", "setting": "[8]; male, oral gavage 10 mg/kg bw", "result": 15, "unit": "min"}, {"measurement": "t1/2", "setting": "[8]; male, oral gavage 10 mg/kg bw", "result": 57, "unit": "min"}, {"measurement": "% F", "setting": "[8]; male, oral gavage 30 mg/kg bw", "result": 42.0, "unit": "%"}, {"measurement": "AUC0-last", "setting": "[8]; male, oral gavage 30 mg/kg bw", "result": "9535 ± 4190", "unit": "ng·h/mL"}, {"measurement": "Cmax", "setting": "[8]; male, oral gavage 30 mg/kg bw", "result": "7643 ± 2404", "unit": "ng/mL"}, {"measurement": "Tmax", "setting": "[8]; male, oral gavage 30 mg/kg bw", "result": 18.6, "unit": "min"}, {"measurement": "t1/2", "setting": "[8]; male, oral gavage 30 mg/kg bw", "result": 65.4, "unit": "min"}, {"measurement": "% F", "setting": "[8]; male, oral gavage 100 mg/kg bw", "result": 73.9, "unit": "%"}, {"measurement": "AUC0-last", "setting": "[8]; male, oral gavage 100 mg/kg bw", "result": "55950 ± 19820", "unit": "ng·h/mL"}, {"measurement": "Cmax", "setting": "[8]; male, oral gavage 100 mg/kg bw", "result": "33070 ± 14550", "unit": "ng/mL"}, {"measurement": "Tmax", "setting": "[8]; male, oral gavage 100 mg/kg bw", "result": 15, "unit": "min"}, {"measurement": "t1/2", "setting": "[8]; male, oral gavage 100 mg/kg bw", "result": 81, "unit": "min"}, {"measurement": "Fold increase in AUClast for 10-fold increase in oral dose", "setting": "[8]; male", "result": 18.6, "unit": "fold"}, {"measurement": "NOEL", "setting": "[9]", "result": 140, "unit": "mg/kg bw/day"}]}
{"smiles": "C[C@]12CC[C@H]3[C@@H](CCC4=CC(=O)CC[C@@]43C)[C@@H]1CC[C@@H]2O", "note": "[testosterone, reference compound]", "values": [{"measurement": "Turnover", "setting": "[10]", "result": "greater than 85%"}, {"measurement": "Turnover", "setting": "[11]", "result": "greater than 85%"}]}
